# Assay results from patent US20160297833A1, “THIENOPYRIMIDINES AS MKNK1 AND MKNK2 INHIBITORS” (BAYER PHARMA AKTIENGESELLSCHAFT, priority 2013, published 2016).
# Target: T1, human full-length MKNK1 (Homo sapiens, UniProt Q9BUB5, T385D)
# T1 construct: GST (N); purchased Carna Biosciences 02-145; host or cells: insect cells (baculovirus expression system)
# Experiment: MKNK1 kinase high ATP assay (TR-FRET)
# Type: biochemical
# Conditions: Table 1; MKNK1 kinase high ATP assay, 2 mM ATP; read-out: MKNK1 IC50
# Procedure, shortened: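 Full-length human MKNK1 (T385D) preincubated 15 min at 22 °C with compound in HEPES pH 7.5/MgCl2/DTT buffer; reaction with 2 mM ATP (final) and 0.06 μM biotinylated peptide (final), 30 min at 22 °C.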
# T1 sequence (Q9BUB5 1-424 isoform Q9BUB5-2 T344D): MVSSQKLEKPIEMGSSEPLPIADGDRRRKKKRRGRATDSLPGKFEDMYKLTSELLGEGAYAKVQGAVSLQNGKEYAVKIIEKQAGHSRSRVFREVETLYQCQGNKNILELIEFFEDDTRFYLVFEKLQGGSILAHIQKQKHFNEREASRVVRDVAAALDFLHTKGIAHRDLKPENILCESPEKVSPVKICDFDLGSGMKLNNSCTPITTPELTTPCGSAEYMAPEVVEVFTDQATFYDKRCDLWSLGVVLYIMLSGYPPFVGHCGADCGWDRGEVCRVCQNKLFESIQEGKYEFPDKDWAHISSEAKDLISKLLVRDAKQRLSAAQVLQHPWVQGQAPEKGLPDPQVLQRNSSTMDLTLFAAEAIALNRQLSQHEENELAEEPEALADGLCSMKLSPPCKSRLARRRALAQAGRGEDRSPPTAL
row,IC50 [nM],SMILES
1,5.5,"CN1CCN(C(=O)[C@H]2CCc3c(sc4ncnc(Nc5ccc6[nH]ncc6c5)c34)C2)CC1 [Example 14, [(7S)-4-(1H-Indazol-5-ylamino)-5,6,7,8-tetrahydro[I]benzothieno[2,3-d]pyrimidin-7-yl](4-methylpiperazin-1-yl)methanone]"
2,0.6,"COc1cc2[nH]ncc2cc1Nc1ncnc2sc3c(c12)CC[C@H](C(=O)N1CC(F)C1)C3 [Example 163, (3-fluoroazetidin-1-yl){(7S)-4-[(6-methoxy-1H-indazol-5-yl)amino]-5,6,7,8-tetrahydro[1]benzothieno[2,3-d]pyrimidin-7-yl}methanone]"
3,0.3,"C[C@H]1COCCN1C(=O)[C@H]1CCc2c(sc3ncnc(Nc4cc5cn[nH]c5cc4N(C)C)c23)C1 [Example 188, [(7S)-4-{[6-(Dimethylamino)-1H-indazol-5-yl]amino}-5,6,7,8-tetrahydro[1]benzothieno[2,3-d]pyrimidin-7-yl][(3S)-3-methylmorpholin-4-yl]methanone]"
4,0.7,"CN(C)C(=O)[C@H]1CCc2c(sc3ncnc(Nc4cc5cn[nH]c5cc4O)c23)C1 [Example 96, (7S)-4-[(6-Hydroxy-1H-indazol-5-yl)amino]-N,N-dimethyl-5,6,7,8-tetrahydro[1]benzothieno[2,3-d]pyrimidine-7-carboxamide]"
5,0.2,"CCN(CCO)C(=O)[C@H]1CCc2c(sc3ncnc(Nc4cc5cn[nH]c5cc4OC)c23)C1 [Example 40, (7S)—N-Ethyl-N-(2-hydroxyethyl)-4-[(6-methoxy-1H-indazol-5-yl)amino]-5,6,7,8-tetrahydro[1]benzothieno[2,3-d]pyrimidine-7-carboxamide]"
6,0.4,"CCOc1cc2[nH]ncc2cc1Nc1ncnc2sc3c(c12)CC[C@H](C(=O)N(C)CC(C)(C)C)C3 [Example 173, (7S)—N-(2,2-Dimethylpropyl)-4-[(6-ethoxy-1H-indazol-5-yl)amino]-N-methyl-5,6,7,8-tetrahydro[1]benzothieno[2,3-d]pyrimidine-7-carboxamide]"
7,14.3,"CN(C)C(=O)[C@H]1CCc2c(sc3ncnc(Nc4ccc5[nH]ncc5c4)c23)C1 [Example 1, (7S)-4-(1H-Indazol-5-ylamino)-N,N-dimethyl-5,6,7,8-tetrahydro[1]benzothieno[2,3-d]pyrimidine-7-carboxamide]"
8,0.2,"CN(C)C(=O)[C@H]1CCc2c(sc3ncnc(Nc4cc5cn[nH]c5cc4N(C)C)c23)C1 [Example 98, (7S)-4-{[6-(Dimethylamino)-1H-indazol-5-yl]amino}-N,N-dimethyl-5,6,7,8-tetrahydro[1]benzothieno[2,3-d]pyrimidine-7-carboxamide]"
9,5.3,"CN(C)C(=O)[C@H]1CCc2c(sc3ncnc(Nc4cc5cn[nH]c5cc4Cl)c23)C1 [Example 182, (7S)-4-[(6-Chloro-1H-indazol-5-yl)amino]-N,N-dimethyl-5,6,7,8-tetrahydro[1]benzothieno[2,3-d]pyrimidine-7-carboxamide]"
10,0.8,"COc1cc2[nH]ncc2cc1Nc1ncnc2sc3c(c12)CC[C@H](C(=O)N1CCOC[C@H]1C)C3 [Example 31, {(7S)-4-[(6-Methoxy-1H-indazol-5-yl)amino]-5,6,7,8-tetrahydro[1]benzothieno[2,3-d]pyrimidin-7-yl}[(3R)-3-methylmorpholin-4-yl]methanone]"
11,0.4,"COc1cc2[nH]ncc2cc1Nc1ncnc2sc3c(c12)CC[C@H](C(=O)N(C)CCC(F)(F)F)C3 [Example 123, (7S)-4-[(6-Methoxy-1H-indazol-5-yl)amino]-N-methyl-N-(3,3,3-trifluoropropyl)-5,6,7,8-tetrahydro[1]benzothieno[2,3-d]pyrimidine-7-carboxamide]"
12,1.5,"CSc1cc2[nH]ncc2cc1Nc1ncnc2sc3c(c12)CC[C@H](C(=O)N1C[C@@H](C)O[C@@H](C)C1)C3 [Example 252, [(2R,6S)-2,6-Dimethylmorpholin-4-yl][(7S)-4-{[6-(methylsulfanyl)-1H-indazol-5-yl]amino}-5,6,7,8-tetrahydro[1]benzothieno[2,3-d]pyrimidin-7-yl]methanone]"

# Continued, compound first:
row,SMILES,IC50 [nM]
1,"COc1cc2[nH]ncc2cc1Nc1ncnc2sc3c(c12)CC[C@H](C(=O)N1C[C@@H]2C[C@H]1CO2)C3 [Example 33, {(7S)-4-[(6-Methoxy-1H-indazol-5-yl)amino]-5,6,7,8-tetrahydro[1]benzothieno[2,3-d]pyrimidin-7-yl}[(1S,4S)-2-oxa-5-azabicyclo[2.2.1]hept-5-yl]methanone]",1.5
2,"C[C@@H]1COCCN1C(=O)[C@H]1CCc2c(sc3ncnc(Nc4cc5cn[nH]c5cc4OCCN)c23)C1 [Example 130, [(7S)-4-{[6-(2-Aminoethoxy)-1H-indazol-5-yl]amino}-5,6,7,8-tetrahydro[1]benzothieno[2,3-d]pyrimidin-7-yl][(3R)-3-methylmorpholin-4-yl]methanone]",0.9
3,"CN(C)C1CCN(C(=O)[C@H]2CCc3c(sc4ncnc(Nc5cc6cn[nH]c6cc5OCCN5CCCCC5)c34)C2)CC1 [Example 139, [4-(Dimethylamino)piperidin-1-yl][(7S)-4-({6-[2-(piperidin-1-yl)ethoxy]-1H-indazol-5-yl}amino)-5,6,7,8-tetrahydro[1]benzothieno[2,3-d]pyrimidin-7-yl]methanone]",95
4,"O=C([C@H]1CCc2c(sc3ncnc(Nc4cc5cn[nH]c5cc4F)c23)C1)N1CCOCC1 [Example 226, {(7S)-4-[(6-Fluoro-1H-indazol-5-yl)amino]-5,6,7,8-tetrahydro[1]benzothieno[2,3-d]pyrimidin-7-yl}(morpholin-4-yl)methanone]",7.8
5,"CSc1cc2[nH]ncc2cc1Nc1ncnc2sc3c(c12)CC[C@H](C(=O)N1CCOC[C@@H]1C)C3 [Example 254, [(3S)-3-Methylmorpholin-4-yl][(7S)-4-{[6-(methylsulfanyl)-1H-indazol-5-yl]amino}-5,6,7,8-tetrahydro[1]benzothieno[2,3-d]pyrimidin-7-yl]methanone]",1.3
6,"COc1cc2[nH]ncc2cc1Nc1ncnc2sc3c(c12)CC[C@H](C(=O)N1C(=O)O[C@H](c2ccccc2)[C@@H]1C)C3 [Example 64, (4S,5R)-3-({(7S)-4-[(6-Methoxy-1H-indazol-5-yl)amino]-5,6,7,8-tetrahydro[1]benzothieno[2,3-d]pyrimidin-7-yl}carbonyl)-4-methyl-5-phenyl-1,3-oxazolidin-2-one]",10.5
7,"CC(C)Oc1cc2[nH]ncc2cc1Nc1ncnc2sc3c(c12)CC[C@H](C(=O)N1CCCC1)C3 [Example 83, [(7S)-4-{[6-(Propan-2-yloxy)-1H-indazol-5-yl]amino}-5,6,7,8-tetrahydro[1]benzothieno[2,3-d]pyrimidin-7-yl](pyrrolidin-1-yl)methanone]",0.3
8,"C[C@@H]1COCCN1C(=O)[C@H]1CCc2c(sc3ncnc(Nc4cc5cn[nH]c5cc4OC[C@@H](C)N)c23)C1 [Example 150, {(7S)-4-[(6-{[(2R)-2-Aminopropyl]oxy}-1H-indazol-5-yl)amino]-5,6,7,8-tetrahydro[1]benzothieno[2,3-d]pyrimidin-7-yl}[(3R)-3-methylmorpholin-4-yl]methanone]",7.3
9,"O=C([C@H]1CCc2c(sc3ncnc(Nc4cc5cn[nH]c5cc4N4CCCC4)c23)C1)N1CCC1 [Example 195, Azetidin-1-yl[(7S)-4-{[6-(pyrrolidin-1-yl)-1H-indazol-5-yl]amino}-5,6,7,8-tetrahydro[1]benzothieno[2,3-d]pyrimidin-7-yl]methanone]",0.9

# Same assay, conditions: Table 2; ratio of the IC50-value of an R-enantiomer and its corresponding S-enantiomer
row,Activity-Ratio MKNK1,SMILES
1,16.1,"CN1CCN(C(=O)[C@H]2CCc3c(sc4ncnc(Nc5ccc6[nH]ncc6c5)c34)C2)CC1 [Example 14, [(7S)-4-(1H-Indazol-5-ylamino)-5,6,7,8-tetrahydro[I]benzothieno[2,3-d]pyrimidin-7-yl](4-methylpiperazin-1-yl)methanone]"
2,45.9,"CCN(CCO)C(=O)[C@H]1CCc2c(sc3ncnc(Nc4cc5cn[nH]c5cc4OC)c23)C1 [Example 40, (7S)—N-Ethyl-N-(2-hydroxyethyl)-4-[(6-methoxy-1H-indazol-5-yl)amino]-5,6,7,8-tetrahydro[1]benzothieno[2,3-d]pyrimidine-7-carboxamide]"
3,8.3,"CN(C)C(=O)[C@H]1CCc2c(sc3ncnc(Nc4ccc5[nH]ncc5c4)c23)C1 [Example 1, (7S)-4-(1H-Indazol-5-ylamino)-N,N-dimethyl-5,6,7,8-tetrahydro[1]benzothieno[2,3-d]pyrimidine-7-carboxamide]"
